Reference: US20210380988A1, “Reducing Prominin2-Mediated Resistance to Ferroptotic Cell Death” (University of Massachusetts, priority 2020, published 2021)
Where a SMILES comes first, the peptide text is derived from it. The star is where a group is joined. Cbz = O=C(OCc1ccccc1)*; CH2F = FC*

What was measured:
Type in all cases: cell-based
[1] = test system: HSF1; assay: HSF1 mRNA, protein, S326 phosphorylation and nuclear localization in MCF10A cells; details: after 60 minutes of exposure
[2] = test system: HSF1; assay: as above; details: for time after treatment at which the increase in HSF1 mRNA peaked: 25 uM 4HNE or 5 uM RSL3; for expression of HSF1 mRNA by qPCR: 25 uM 4HNE or 5 uM RSL3, 0 to 120 minutes; for HSF1 protein expression and phosphorylation at S326: after 60 minutes of exposure
Description: (§1) Biochemical experiments: Immunoblotting and qPCR were performed as described (Brown C W, 2017). Briefly, for immunoblotting, cell lysates were extracted using radioimmunoprecipitation assay (RIPA) buffer (Boston Bioproducts). Extracts were separated by SDS PAGE using the specified antibodies. Immunoprecipitation was performed on lysates isolated using NP-40 buffer (Boston Bioproducts). Lysates were pre-cleared prior to overnight incubation with the primary antibody and protein A agarose beads (Sigma-Aldrich). Immune complexes were separated by SDS PAGE and immunoblotted as described in figure legends. RNA was isolated from cells (BioBasic) and cDNA was generated using the All in One cDNA Synthesis SuperMix (BioScript Solutions). qPCR was performed using a SYBR green master mix (BioScript Solutions). Sequences for primers used were as follows: […]
(§2) Immunofluorescence microscopy: For adherent cells, 8 well chamber slides (Mattek) were coated with 1 μg/mL laminin (Invitrogen). Cells (5.0×10^4 per well) were plated overnight and then treated for two hours with either DMSO or RSL3, fixed in 4% paraformaldehyde and permeabilized in 0.1% Triton (JT Baker). Slides were blocked in 0.5% BSA (Boston Bioproducts), incubated in antibody overnight at 4° C., washed in PBS and incubated in secondary antibody for 1 hr at room temperature. Slides were washed and mounted in Vectashield with DAPI (Vector Labs). For ECM-detached experiments, cells were trypsinized and plated (5.0×10^5 per well) in 60 mm low-adherent plates (Sumitomo Bakelite) for two hr, collected and spun down prior to being fixed and stained as described above. Slides were imaged on a Zeiss or a Nikon A-1 confocal microscope.

[3] = test system: prominin2; assay: PROM2 mRNA (qPCR) and prominin2 protein (immunoblot) expression in MCF10A cells; details: for prominin2 mRNA and protein expression: adherent MCF10A, 2 hrs, 5 μM RSL3, 250 μM H2O2
Description: as §1

[4] = test system: MDA-MB-231 cells; assay: Survival of adherent cells in response to GPX4 inhibition (crystal violet); details: for cell death in response to compound with exogenous prominin2 expression: MDA-MB-231, prominin2 expression construct vs vector control
Description: (§3) Cell-based assays: Assays to assess survival in response to matrix detachment were performed as described (Brown C W, 2017). To assay survival in response to GPX4 inhibition, adherent cells in 96 well plates (1.0×10^4 per well) were treated with either DMSO, RSL3, ML210, FIN56 or erastin for 24 hrs with and without ferrostatin-1 or DFO. Subsequently, cells were fixed in 4% paraformaldehyde (Boston BioProducts), stained with crystal violet (Sigma) and read on a microplate reader (Beckman Colter) at absorbance 595. Absorbances were normalized to DMSO.

[5] = test system: Hs578t cells; assay: as above; details: for sensitivity to compound in prominin2 knock-down cells compared to control cells: prominin2 siRNA 48 hours, compound 24 hrs
Description: as §3

[6] = test system: MCF10A cells; assay: as above; details: for sensitivity to compound in prominin2 knock-down cells compared to control cells: prominin2 siRNA 48 hours, compound 24 hrs
Description: as §3

[7] = test system: prominin2; assay: PROM2 mRNA (qPCR) and prominin2 protein (immunoblot) expression in Hs578t cells; details: adherent Hs578t, 2 hrs; 5 μM RSL3, 250 μM H2O2
Description: as §1

[8] = test system: MCF10A cells; assay: Multivesicular body formation (TSG101 immunofluorescence, TEM)
Description: as §2
Transmission Electron Microscopy: Adherent siControl and siProminin2 cells were treated with DMSO or RSL3 (5 μM) for two hr. ECM-detached siControl and siProminin2 cells were maintained for 2 hrs in low-adherence plates. All cells were fixed by adding 2.5% glutaraldehyde (v/v) in 0.1 M Na cacodylate buffer (pH 7.2) and processed for TEM. The samples were examined on a FEI Tecnai 12 BT transmission electron microscope using 100 Kv accelerating voltage. Images were captured using a Gatan TEM CCD camera.

[9] = test system: prominin2; assay: PROM2 mRNA (qPCR) and prominin2 protein (immunoblot) expression in MDA-MB-231 cells; details: adherent MDA-MB-231, RSL3 2 hrs
Description: as §1

[10] = test system: Hs578t cells; assay: Multivesicular body formation (TSG101 immunofluorescence); details: RSL3 2 hrs
Description: as §2

[11] = test system: MDA-MB-231 cells; assay: Total free iron (Iron Assay Kit); details: MDA-MB-231 vector control, RSL3 2 hrs; prevented by prominin2 expression
Description: (§4) Total free iron was quantified using the Iron Assay Kit (Abcam) per manufacturer's specifications. Briefly, adherent cells in 10 cm plates (1.0×10^6/well) were treated with either DMSO or RSL3 for 2 hrs, lysed and supernatant was reduced using the provided iron reducer before the mixture was reacted with an iron probe. Plates were read at 595 nm and total iron concentration was obtained using an iron standard curve.

[12] = test system: Hs578t cells; assay: Total free iron (Iron Assay Kit)
Description: as §4

[13] = test system: MCF10A cells; assay: Total free iron (Iron Assay Kit)
Description: as §4

[14] = test system: MCF10A and Hs578t cells; assay: Exosome isolation by ultracentrifugation (protein, ICP-MS iron)
Description: Exosome isolation: Cells were cultured for 24 hrs in their respective media containing extracellular vesicle (EV) free serum and treated with RSL3 for 24 hours. Culture supernatants were centrifuged at 4° C. at 1000 RPM for 5 min, 3000 RPM for 10 min, 4000 RPM for 30 min prior to ultracentrifugation at 22,000 RPM for 140 min at 4° C. Pellets were resuspended in cold PBS and centrifuged again under the same conditions. For immunoblotting, pellets were lysed in RIPA buffer, centrifuged at 10,000 RPM for 15 min and protein concentration was determined by Bradford Assay (BioRad). For TEM, PBS was removed and 20 μL of the exosome preparation was fixed and processed. For ICP-mass spec, exosome-containing pellet was resuspended in 0.5 mL PBS and centrifuged in a speed-vac at 45° C. Samples were sent to the UMASS Mass Spectrometry Core where they were digested in 100 μL HNO3, heated to 65° C. for 20 min and diluted to 2 mL with ddH2O before analysis.

[15] = test system: prominin1 (CD133); assay: PROM1 expression by qPCR; details: MCF10A and Hs578t cells, 5 μM RSL3, 2 hrs (FIG. 8A)
Description: as §1

[16] = test system: Hs578t cells; assay: Survival in response to matrix (ECM) detachment; details: 24 hrs, ferrostatin-1 (2 μM), ZVAD-fmk (25 μM), deferoxamine
Description: as §3

[17] = test system: MCF10A cells; assay: Survival in response to matrix (ECM) detachment; details: 24 hrs, ferrostatin-1 (2 μM), ZVAD-fmk (25 μM), deferoxamine
Description: as §3

## CCCCCC(O)/C=C/C=O (centres unmarked) [4HNE, 4-hydroxynonenal]
[1]
  HSF1 expression and nuclear localization: increased
[2]
  time after treatment at which the increase in HSF1 mRNA peaked: 15 min
  expression of HSF1 mRNA by qPCR: significant increase
  HSF1 protein expression and phosphorylation at S326: increased HSF1 protein expression levels as well as phosphorylation at S326
[3]; mechanism dependent upon HSF1, cell line not named at b183
  PROM2 transcription: stimulates PROM2 transcription

## Cc1ccc(-n2nc(C(C)(C)C)cc2NC(=O)Nc2ccc(OCCN3CCOCC3)c3ccccc23)cc1 [BIRB]
[2]; 10 uM BIRB pretreatment
  induction and phosphorylation of HSF1 following 4HNE or RSL3 treatment: prevented the induction and phosphorylation of HSF1
[2]; 10 uM BIRB pretreatment 15 minutes
  increase in HSF1 expression and nuclear localization, treatment prior to 4HNE or RSL3: significantly reduced the increase in expression and nuclear localization
[2]; pre-treated with 10 uM BIRB, after 30 minutes of treatment
  4HNE- or RSL3-driven increase in HSF1 expression on p38 inhibition: reduced the 4HNE- or RLS3-driven increase in HSF1 to basal levels

## O=S(=O)(NC1CCCCC1)c1ccc2c(c1)C(=NO)c1cc(S(=O)(=O)NC3CCCCC3)ccc1-2 [FIN56]
[4]
  cell death in response to compound with exogenous prominin2 expression: sufficient to inhibit cell death
[5]; Hs578t
  sensitivity to compound in prominin2 knock-down cells compared to control cells: significant increase in sensitivity
[6]; MCF10A
  sensitivity to compound in prominin2 knock-down cells compared to control cells: significant increase in sensitivity

## O=C(/C=C/c1ccc(/C=C/C(=O)Nc2ccc(C3=NCCN3)cc2)cc1)Nc1ccc(C2=NCCN2)cc1 [GW4869]
[5]; Hs578t, RSL3 (5 μM) and GW4869 (20 μM), 24 hrs
  sensitivity of cells to RSL3 on inhibition of exosome release: increased the sensitivity
[6]; MCF10A, RSL3 (5 μM) and GW4869 (20 μM), 24 hrs
  sensitivity of cells to RSL3 on inhibition of exosome release: increased the sensitivity

## OO [H2O2]
[7]
  prominin2 mRNA and protein expression: did not increase prominin2 expression
[3]
  prominin2 mRNA and protein expression: did not increase prominin2 expression

## Cl.N [NH4Cl]
[5]; Hs578t, 20 mM NH4Cl pre-treatment 60 min, then with RSL3 24 hrs (FIG. 10D)
  effect on cell survival following GPX4 inhibition: had no effect on cell survival

## COC(=O)c1ccc([C@@H]2c3[nH]c4ccccc4c3C[C@@H](C(=O)OC)N2C(=O)CCl)cc1 [RSL3]
[8]; RSL3 2 hrs
  TSG101-positive structures vs vehicle control-treated cells: more TSG101-positive structures
[8]; RSL3, effect not observed in prominin2-silenced cells
  MVBs per cell by TEM vs control cells: significantly more MVBs per cell
[9]
  induction of prominin2: did not induce prominin2
[10]
  TSG101-positive structures vs vehicle control-treated cells: more TSG101-positive structures
[4]
  cell death in response to compound with exogenous prominin2 expression: sufficient to inhibit cell death
[4]; adherent MDA-MB-231, 24 hrs, FIG. 1F
  RSL3 concentrations by which cells were killed: ≥ 0.5 µM
[5]; Hs578t
  sensitivity to compound in prominin2 knock-down cells compared to control cells: significant increase in sensitivity
[5]; adherent Hs578t, 24 hrs, FIG. 1F
  RSL3 concentrations at which cells were resistant to RSL3-induced cell death: up to 2.5
[6]; MCF10A
  sensitivity to compound in prominin2 knock-down cells compared to control cells: significant increase in sensitivity
[6]; adherent MCF10A, 24 hrs, FIG. 1F
  RSL3 concentrations at which cells were resistant to RSL3-induced cell death: up to 2.5
[11]
  free iron in response to RSL3 in control cells: increase in iron
[12]; 5 μM RSL3, 2 hrs
  free iron concentration, RSL3-treated vs control cells: no significant difference
[12]; siRNA 48 hrs, RSL3 2 hrs
  concentration of free iron following RSL3 treatment when either prominin2 or both FTH1 and FTL were silenced: increase
[13]; 5 μM RSL3, 2 hrs
  free iron concentration, RSL3-treated vs control cells: no significant difference
[13]; siRNA 48 hrs, RSL3 2 hrs
  concentration of free iron following RSL3 treatment when either prominin2 or both FTH1 and FTL were silenced: increase
[7]
  prominin2 mRNA and protein expression: increased prominin2 mRNA and protein expression
[14]; 1 μM RSL3, 24 hours, exosomal protein in control cells not detected
  protein in the exosome preparation: significant amount of protein
[14]; exosomes harvested from RSL3-treated cells
  iron in exosomes by ICP-MS: 3400 ng per exosome collection sample
[15]
  expression of prominin1 (CD133): not altered significantly
[1]
  HSF1 expression and nuclear localization: increased
[2]
  time after treatment at which the increase in HSF1 mRNA peaked: 15 min
  expression of HSF1 mRNA by qPCR: significant increase
  HSF1 protein expression and phosphorylation at S326: increased HSF1 protein expression levels as well as phosphorylation at S326
[3]
  prominin2 mRNA and protein expression: increased prominin2 mRNA and protein expression

## COC(=O)C[C@H](NC(=O)[C@H](C)NC(=O)[C@@H](NC(=O)OCc1ccccc1)C(C)C)C(=O)CF [ZVAD-fmk] (Cbz-Val-Ala-Asp(OMe)-CH2F)
[16]
  rescue of cell viability of ECM-detached prominin2-silenced cells by co-treatment: not
[17]
  rescue of cell viability of ECM-detached prominin2-silenced cells by co-treatment: not

## C#Cc1cccc(Nc2ncnc3cc(OCCOC)c(OCCOC)cc23)c1 [erlotinib]
[6]; MCF10A, 100 nM Dasatinib or 25 uM Erlotinib with RSL3, 24 hours
  sensitivity to RSL3 on co-treatment with other therapeutics: did not significantly improve sensitivity

## CCOC(=O)c1ccc(NC2CCCCC2)c(N)c1 [ferrostatin-1]
[5]; Hs578t, RSL3 24 hrs, 100 uM deferoxamine
  rescue of cell death triggered by GPX4 inhibition in FTH1 and FTL knock-down cells: rescued
[5]; Hs578t, RSL3 (5 μM) and ferrostatin-1 (2 μM), 24 hrs
  rescue of loss of cell viability in prominin2-depleted cells: completely rescued
[6]; MCF10A, RSL3 24 hrs, 100 uM deferoxamine
  rescue of cell death triggered by GPX4 inhibition in FTH1 and FTL knock-down cells: rescued
[6]; MCF10A, RSL3 (5 μM) and ferrostatin-1 (2 μM), 24 hrs
  rescue of loss of cell viability in prominin2-depleted cells: completely rescued
[6]; MCF10A, TSG101 siRNA 48 hours, RSL3 and ferrostatin-1 24 hrs (FIG. 4C)
  rescue of RSL3-induced cell death in cells with diminished TSG101 expression: rescued
[16]
  rescue of cell viability of ECM-detached prominin2-silenced cells by co-treatment: rescued
[17]
  rescue of cell viability of ECM-detached prominin2-silenced cells by co-treatment: rescued
